# US12378190B2, “Two-component coating system” (COVESTRO (NETHERLANDS) B.V., priority 2020, dated 2025)
# Assays:
# [1] = test system: Rtkn-GFP mouse embryonic stem (mES) reporter cell line; test: ToxTracker genotoxicity assay, Rtkn-GFP reporter induction
# Protocol: A 2 L four-necked flask equipped with a thermometer and overhead stirrer was charged with sodium lauryl sulphate (30% solids in water, 18.6 grams of solution) and demineralized water (711 grams). The reactor phase was placed under N2 atmosphere and heated to 82° C. A mixture of demineralized water (112 grams), sodium lauryl sulphate (30% solids in water, 37.2 grams of solution), methyl methacrylate (209.3 grams), n-butyl acrylate (453.56 grams) and methacrylic acid (34.88 grams) was placed in a large feeding funnel and emulsified with an overhead stirrer (monomer feed). Ammonium persulphate (1.75 grams) was dissolved in demineralized water (89.61 grams) and placed in a small feeding funnel (initiator feed). Ammonium persulphate (1.75 grams) was dissolved in demineralized water (10.5 grams), and this solution was added to the reactor phase. Immediately afterwards, 5% by volume of the monomer feed was added to the reactor phase. The reaction mixture then exothermed to 85° C. and was kept at 85° C. for 5 minutes. Then, the residual monomer feed and the initiator feed were fed to the reaction mixture over 90 minutes, maintaining a temperature of 85° C. After completion of the feeds, the monomer feed funnel was rinsed with demineralized water (18.9 grams) and reaction temperature maintained at 85° C. for 45 minutes. Subsequently, the mixture was cooled to room temperature and brought to pH=7.2 with ammonia solution (6.25 wt. % in demineralized water), and brought to 40% solids with further demineralized water. […] This methodology uses a two step-approach. […] Metabolic was evaluated by addition of S9 liver extract. […] Only GFP expression in intact single cells is determined. […] Components and Abbreviations Used: Dimethylformamide (CAS No. 68-12-2) was obtained from Acros Organics (a division of Thermo Fisher Scientific). […] IPDI (5-isocyanato-1-(isocyanatomethyl)-1,3,3-trimethylcyclohexane, Desmodur® I, isophorone diisocyanate, CAS No. 4098-71-9) was obtained from Covestro. Polyethylene Glycol Monomethyl Ether (CAS No. 9004-74-4) with a number average molecular weight of 1000 Da was obtained from Tokyo Chemical Industry Co., Ltd. Vestanat® T 1890/100, an isophorone diisocyanate based isocyanurate (CAS No. 67873-91-0) was obtained from Evonik. Desmodur® N3600 was obtained from Covestro. 1-methoxy-2-propanol acetate (propylene glycol methyl ether acetate, CAS No. 108-65-6) was obtained from Shell Chemicals. 1-(2-hydroxyethyl)ethyleneimine) (CAS No. 1072-52-2) was obtained from Tokyo Chemical Industry Co., Ltd. Jeffamine® XTJ-436 (CAS No. 118270-87-4) was obtained from Huntsman Bismuth neodecanoate (CAS No. 34364-26-6) obtained from TIB chemicals AG (Mannheim, Germany). Hydrazine (16% solution in water, CAS No. 302-01-2) was obtained from Honeywell. Dimethylol propionic acid (DMPA, CAS No. 4767-03-7) was obtained from Perstop Polyols. Triethylamine (TEA, CAS No. 121-44-8) was obtained from Arkema 1-propanol (CAS No. 71-23-8) was obtained from Sigma-Aldrich. Tin 2-ethylhexanoate (CAS No. 301-10-0) was obtained from Sigma-Aldrich. Dibutyltindilaurate (CAS No. 77-58-7) was obtained from Sigma-Aldrich. Tegomer® D3403 was obtained from Evonik. Polypropyleneglycol with a number average molecular weight of 1000 Da and with a number average molecular weight of 2000 Da was obtained from BASF. 3-Methyl-1-phenyl-2-phospholene-1-oxide (CAS No. 707-61-9) was obtained from Sigma-Aldrich. 1-Butanol (CAS No. 71-36-3) was obtained from Sigma-Aldrich. Sodium lauryl sulphate (30% solution in water, CAS No. 73296-89-6) was obtained from BASF. Methyl methacrylate (CAS No. 80-62-6) was obtained from Lucite Int. n-Butyl acrylate (CAS No. 141-32-2) was obtained from Dow Chemical. Methacrylic acid (CAS No. 79-41-4) was obtained from Lucite Int. Ammonium persulphate (CAS No. 7727-54-0) was obtained from United Initiators. Ammonia (25% solution in water, CAS No. 1336-21-6) was obtained from Merck
# [2] = test system: Bscl2-GFP and Rtkn-GFP mES reporter cell lines; test: ToxTracker genotoxicity assay, overall conclusion; conditions: positive: >=2-fold induction; weakly positive: >1.5 and <2-fold; negative: <=[…] at 10, 25 and 50% cytotoxicity, with and without S9
# Protocol: A 2 L four-necked flask equipped with a thermometer and overhead stirrer was charged with sodium lauryl sulphate (30% solids in water, 18.6 grams of solution) and demineralized water (711 grams). The reactor phase was placed under N2 atmosphere and heated to 82° C. A mixture of demineralized water (112 grams), sodium lauryl sulphate (30% solids in water, 37.2 grams of solution), methyl methacrylate (209.3 grams), n-butyl acrylate (453.56 grams) and methacrylic acid (34.88 grams) was placed in a large feeding funnel and emulsified with an overhead stirrer (monomer feed). Ammonium persulphate (1.75 grams) was dissolved in demineralized water (89.61 grams) and placed in a small feeding funnel (initiator feed). Ammonium persulphate (1.75 grams) was dissolved in demineralized water (10.5 grams), and this solution was added to the reactor phase. Immediately afterwards, 5% by volume of the monomer feed was added to the reactor phase. The reaction mixture then exothermed to 85° C. and was kept at 85° C. for 5 minutes. Then, the residual monomer feed and the initiator feed were fed to the reaction mixture over 90 minutes, maintaining a temperature of 85° C. […] Metabolic was evaluated by addition of S9 liver extract. […] Only GFP expression in intact single cells is determined. […]
SMILES,"Rtkn induction level ([1]; with S9 rat liver extract, 3 h exposure and 24 h recovery, at 10% cytotoxicity)","Rtkn induction level ([1]; with S9 rat liver extract, 3 h exposure and 24 h recovery, at 25% cytotoxicity)","Rtkn induction level ([1]; with S9 rat liver extract, 3 h exposure and 24 h recovery, at 50% cytotoxicity)","Rtkn induction level ([1]; without S9 rat liver extract, 24 h exposure, at 10% cytotoxicity)","Rtkn induction level ([1]; without S9 rat liver extract, 24 h exposure, at 25% cytotoxicity)","Rtkn induction level ([1]; without S9 rat liver extract, 24 h exposure, at 50% cytotoxicity)",Genotoxicity test conclusion [2]
O=C(NCCCCCCn1c(=O)n(CCCCCCNC(=O)OCCN2CC2)c(=O)n(CCCCCCNC(=O)OCCN2CC2)c1=O)OCCN1CC1 [compound 2],2.0 fold,3.4 fold,3.0 fold,1.7 fold,2.4 fold,2.8 fold,genotoxic
"O=C(CCN1CC1)OCC(CO)(COC(=O)CCN1CC1)COC(=O)CCN1CC1 [Comparative Example 3, pentaerythritol tris(3-(1-aziridinyl)propionate)]",,,,,,,genotoxic
